Where two headings read alike, the source gives them in different places.
Experiments:
P-gp (MDR1) = P-gp (MDR1) (Homo sapiens, UniProt P08183); assay: Transport of digoxin and ginsenosides across L-MDR1 cell monolayers (efflux ratio); format: in vitro ADME; conditions: human, read-out: Efflux ratio (Papp BL-AP / Papp AP-BL)
Description: (§1) LLC-PK1 cells, a cell line lacking P-gp, and the derived cell line L-MDR1, which over-express human MDR1-encoded P-gp, were grown in minimum essential medium with supplements at 37°C, 5% CO2, and 95% humidity. LLC-PK1 and L-MDR1 cells were seeded at a density of 12×10^6 cells per 150-cm^2 flask and grown for 7 days in medium 199 supplemented with 2 mM glutamine, 10% fetal bovine serum, 10 mg/500 mL of streptomycin, and 10,000 IU/500 mL of penicillin. To ensure a constant expression level of transport protein, L-MDR1 cells were grown in the presence of 640 nM vincristine. Cells were grown as monolayer on polycarbonate membrane filters (Transwell; Costar Corporation, Cambridge, MA) as outlined previously. Transepithelial resistance was measured in each well using a Millicell ERS ohmmeter (Millipore, Bedford, MA); wells registering a resistance of 200 ohms or greater, after correcting for the resistance obtained in control blank wells, were used in the transport experiments.
(§2) The LLC-PK1 and L-MDR1 cells were washed with warm Hank's balanced salt solution HBSS (pH 7.4) twice before transport experiment. HBSS containing verapamil (10 µM), SLE (2.0 and 10.0 µg/mL) or blank HBSS (control) was then loaded into both apical and basolateral chambers. After incubation at 37°C for 1.5 h, GE (100 µg/mL) was added to either the apical or basolateral side to evaluate the transport in absorptive and secretive directions, respectively. The cell monolayer was then incubated for another 2 h. Finally, the concentrations of ginsenosides were determined by LC/MS. All experiments were conducted in triplicate.
(§3) For the transport assay, the apparent permeability (P app, cm/s) in each direction (A→B and B→A) was calculated as follows, where A is the surface area of the membrane inserts (0.0804 cm^2), C 0 is the initial concentration of the compound applied in the donor compartment (2 µM), and △Q is the amount (micromoles) of compound transported over time △t (5 h = 18,000 s): [drawing 1]
(§4) The efflux ratio (ER) was a dimensionless number calculated as the ratio of the apparent permeability in the B→A direction divided by the apparent permeability in the A→B direction. [drawing 2]

[1] = target: T1, human MDR1-encoded P-gp (L-MDR1 cells) (Homo sapiens, UniProt P08183); assay: as above; format: in vitro ADME; conditions: for Effect of verapamil on efflux ratio / Papp / Effect of SLE on efflux ratio / transport: L-MDR1 cells; for Effect of verapamil on efflux ratio / Papp: 10 µM verapamil; for Effect of SLE on efflux ratio / transport: SLE 2.0 and 10.0 µg/mL; for P-gp substrate classification: summary of transport/uptake in LLC-PK1, L-MDR1 and Caco-2 cells with verapamil
Description: as §1, §2, §3, §4

[2] = target: T1, human MDR1-encoded P-gp (L-MDR1 cells); assay: Uptake (intracellular concentration) of digoxin and ginsenosides in L-MDR1 cells; format: in vitro ADME
Description: as §1
(§5) LLC-PK1 and L-MDR1 cells were incubated with SLE (2.0 and 10.0 µg/mL) or verapamil (10 µM) for 1.0 h, and then were washed to discard SLE or verapamil before adding 100 µg/mL of GE. The accumulation of GE lasted for 2 h, and the intracellular concentrations of ginsenosides were measured by LC/MS. All experiments were conducted in triplicate.

[3] = Rat plasma pharmacokinetics after 10-day vehicle/SLE and digoxin or GE; format: in vivo, Sprague-Dawley rats; conditions: for AUC(0-inf): read-out: AUCINF_obs; for MRT inf: read-out: MRTINF_obs
Description: This study was carried out in strict accordance with the recommendations in the Guide for the Care and Use of Laboratory Animals of the National Institutes of Health. The protocol was approved by the Committee on the Ethics of Animal Experiments of the China Pharmaceutical University. All surgery was performed under sodium pentobarbital anesthesia, and all efforts were made to minimize suffering. […] The rats were fed with standard laboratory food and water and fasted overnight but with free access to water before the test. To evaluate the effect of long-term treatment with SLE on the pharmacokinetics of ginsenosides, 24 rats were also divided into four groups (group I∼ group IV) with 6 animals each. […] On the 11th day, digoxin was administered intragastrically to rats (group I and group II) at a single dose of 0.5 mg/kg, GE was administered intragastrically to rats (group III and group IV) at a single dose of 120 mg/kg. […] Plasma was obtained by centrifugation at 5000 g for 10 min and stored at −20°C before analysis. The plasma / cell samples were extracted using a liquid–liquid extraction technique. To each tube containing 100 µL plasma, 10 µL internal standard (digoxin, 1.0 µg/mL) and 1.0 mL of n-butanol were added. The mixture was then vortex-extracted for 2 min, and centrifuged for 10 min at 10,000 g. […] The plasma concentration-time curves of ginsenosides in rats were obtained by plotting the mean plasma concentrations versus time. Pharmacokinetic parameters were calculated using the WinNonlin 6.3 program (Pharsight Inc., Mountain View, CA). The elimination half-life (t 1/2) value was calculated as 0.693/β, where β is the elimination rate constant calculated from the terminal linear portion of the log plasma concentration-time curve. The total areas under the plasma concentration- time curve from time 0 to the last quantifiable time point (AUC0-t) and from time 0 to infinity (AUC0-∞) were calculated using the log trapezoidal rule. [drawing 3] The maximum plasma concentrations (C max) for ginsenosides were obtained by visual inspection of the plasma concentration-time curve, whereas the initial drug concentration (the extrapolated concentration at zero time) of the drug after intravenous injection was calculated by back-extrapolation of the plasma concentration-time curve to the y-axis.

[4] = test system: LLC-PK1 cells (lacking P-gp); assay: Uptake (intracellular accumulation) of digoxin and ginsenosides in LLC-PK1 cells; format: in vitro ADME; conditions: for Effect of verapamil on intracellular accumulation: 10 µM verapamil; for Effect of SLE on intracellular accumulation: SLE 2.0 and 10.0 µg/mL
Description: as §1, §5

[5] = test system: LLC-PK1 cells (lacking P-gp); assay: Transport of digoxin and ginsenosides across LLC-PK1 cell monolayers; format: in vitro ADME; conditions: for Effect of verapamil on transport (efflux ratio): 10 µM verapamil; for Effect of SLE on transport (AP→BL, BL→AP): SLE 2.0 and 10.0 µg/mL
Description: as §1, §2, §3, §4

[6] = LLC-PK1, pH 7.4, L-MDR1 cells, control (absence of verapamil), GE 100 µg/mL, 2 h
[7] = LLC-PK1, pH 7.4, with verapamil 10 µM, L-MDR1 cells, presence of 10 µM verapamil
[8] = female, Sprague-Dawley, rat, plasma, po, rats, SLE 500 mg/kg ig once a day for 10 days, day 11 digoxin 0.5 mg/kg or GE 120 mg/kg ig
[9] = female, Sprague-Dawley, rat, plasma, po, rats, control: vehicle once a day for 10 days, day 11 digoxin 0.5 mg/kg or GE 120 mg/kg ig
[10] = rats, SLE 500 mg/kg ig once a day for 10 days, day 11 digoxin 0.5 mg/kg or GE 120 mg/kg ig
[11] = rats, control: vehicle once a day for 10 days, day 11 digoxin 0.5 mg/kg or GE 120 mg/kg ig

T1 sequence (P08183 whole entry): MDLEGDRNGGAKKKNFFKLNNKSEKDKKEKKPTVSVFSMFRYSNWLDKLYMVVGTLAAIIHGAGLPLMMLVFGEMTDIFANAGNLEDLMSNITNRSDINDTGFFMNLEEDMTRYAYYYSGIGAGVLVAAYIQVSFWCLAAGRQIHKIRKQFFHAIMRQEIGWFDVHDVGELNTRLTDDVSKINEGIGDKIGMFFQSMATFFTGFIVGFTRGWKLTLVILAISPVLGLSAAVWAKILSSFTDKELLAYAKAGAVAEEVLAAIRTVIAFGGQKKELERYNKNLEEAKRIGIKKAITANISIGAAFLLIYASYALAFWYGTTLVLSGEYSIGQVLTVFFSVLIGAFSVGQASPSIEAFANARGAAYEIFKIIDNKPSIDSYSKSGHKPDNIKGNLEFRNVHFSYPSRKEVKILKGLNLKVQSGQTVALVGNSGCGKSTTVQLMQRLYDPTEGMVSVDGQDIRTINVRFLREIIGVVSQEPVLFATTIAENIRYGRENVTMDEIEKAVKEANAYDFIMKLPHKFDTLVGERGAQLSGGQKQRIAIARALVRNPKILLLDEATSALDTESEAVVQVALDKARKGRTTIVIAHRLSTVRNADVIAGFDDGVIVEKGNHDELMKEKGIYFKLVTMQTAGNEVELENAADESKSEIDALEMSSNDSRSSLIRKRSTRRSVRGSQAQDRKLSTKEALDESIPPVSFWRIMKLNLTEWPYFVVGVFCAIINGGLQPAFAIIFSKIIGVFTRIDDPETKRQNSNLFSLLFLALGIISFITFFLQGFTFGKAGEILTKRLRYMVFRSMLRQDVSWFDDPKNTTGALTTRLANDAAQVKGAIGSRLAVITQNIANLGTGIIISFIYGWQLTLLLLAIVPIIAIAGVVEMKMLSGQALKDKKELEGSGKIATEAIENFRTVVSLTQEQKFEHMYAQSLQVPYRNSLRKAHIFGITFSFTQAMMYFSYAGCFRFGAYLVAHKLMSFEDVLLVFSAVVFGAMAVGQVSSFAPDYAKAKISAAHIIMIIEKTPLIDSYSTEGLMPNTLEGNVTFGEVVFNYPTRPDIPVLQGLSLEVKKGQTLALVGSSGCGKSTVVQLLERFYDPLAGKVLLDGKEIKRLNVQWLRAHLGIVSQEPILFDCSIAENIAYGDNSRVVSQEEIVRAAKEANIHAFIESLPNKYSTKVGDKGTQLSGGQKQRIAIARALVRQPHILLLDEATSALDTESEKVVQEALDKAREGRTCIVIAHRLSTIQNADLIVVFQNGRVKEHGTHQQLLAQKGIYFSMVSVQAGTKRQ
Chain of P-gp (MDR1) (P08183 whole entry): as above

Row | efflux ratio at 2 h, 100 µg/mL (P-gp (MDR1); [6]) | efflux ratio at 2 h, 100 µg/mL (P-gp (MDR1); [7]) | Effect of verapamil on efflux ratio / Papp [1] | Effect of SLE on efflux ratio / transport [1] | P-gp substrate classification [1] | Increase of intracellular concentration by SLE ([2]; 2.0 µg/mL SLE) [fold] | Increase of intracellular concentration by SLE ([2]; 10.0 µg/mL SLE) [fold] | Effect of verapamil on intracellular accumulation [4] | Effect of SLE on intracellular accumulation [4] | Effect of verapamil on transport (efflux ratio) [5] | Effect of SLE on transport (AP→BL, BL→AP) [5] | other results | SMILES
1 | > 3.5 | 1.42 | significantly decrease of ER | significantly decreased | moderate P-gp substrates | 1.9 | 3.5 | no significant difference | no significant difference | No transport difference | No transport difference | Increase of AUC (AUC0-∞) by 10 continuous days administration of SLE ([3]; female, Sprague-Dawley, rat, in vivo): 1.16 fold; t1/2 ([3]; female, Sprague-Dawley, rat, in vivo, po): 20.81 ± 9.64 h; Tmax ([3]; female, Sprague-Dawley, rat, in vivo, po, Tmax): 11.2 ± 1.79 h; half-life ([3]; female, Sprague-Dawley, rat, in vivo, po, t1/2): 26.8 ± 3.08 h | CC(C)=CCC[C@](C)(O[C@@H]1O[C@H](CO[C@@H]2O[C@@H](CO)[C@H](O)[C@H]2O)[C@@H](O)[C@H](O)[C@H]1O)[C@H]1CC[C@]2(C)[C@@H]1[C@H](O)C[C@@H]1[C@@]3(C)CC[C@H](O[C@@H]4O[C@H](CO)[C@@H](O)[C@H](O)[C@H]4O[C@@H]4O[C@H](CO)[C@@H](O)[C@H](O)[C@H]4O)C(C)(C)[C@@H]3CC[C@]12C [Rc, ginsenoside Rc]
2 | > 3.5 | 1.57 | significantly decrease of ER | significantly decreased | moderate P-gp substrates | 2.9 | 5.1 | no significant difference | no significant difference | No transport difference | No transport difference | AUC [3, 8]: 25600 ± 1300 ng·h/mL; Cmax [3, 8]: 736 ± 143 ng/mL; AUC(0-inf) [3, 8]: 27000 ± 2380 ng·h/mL; MRT inf [3, 8]: 33.5 ± 7.91 h; Tmax ([3]; female, Sprague-Dawley, rat, plasma, po, rats, SLE 500 mg/kg ig once a day for 10 days, day 11 digoxin 0.5 mg/kg or GE 120 mg/kg ig, read-out: Tmax): 9.6 ± 2.19 h; half-life ([3]; female, Sprague-Dawley, rat, plasma, po, rats, SLE 500 mg/kg ig once a day for 10 days, day 11 digoxin 0.5 mg/kg or GE 120 mg/kg ig, read-out: t1/2 (converted)): 19.3 ± 8.29 h; AUC [3, 9]: 14100 ± 5070 ng·h/mL; Cmax [3, 9]: 430 ± 135 ng/mL; AUC(0-inf) [3, 9]: 14300 ± 5180 ng·h/mL; MRT inf [3, 9]: 28.1 ± 4.81 h; Tmax ([3]; female, Sprague-Dawley, rat, plasma, po, rats, control: vehicle once a day for 10 days, day 11 digoxin 0.5 mg/kg or GE 120 mg/kg ig, read-out: Tmax): 10 ± 4.47 h; half-life ([3]; female, Sprague-Dawley, rat, plasma, po, rats, control: vehicle once a day for 10 days, day 11 digoxin 0.5 mg/kg or GE 120 mg/kg ig, read-out: t1/2 (converted)): 17.2 ± 2.16 h; AUCINF_obs [3, 10]: 27017 ± 2381 ng·h/mL; Cl_F_obs [3, 10]: 0.0037 ± 0.0003 L/h; Increase of AUC (AUC0-∞) by 10 continuous days administration of SLE ([3]; rats, SLE 500 mg/kg x 10 days vs vehicle, GE ig on day 11): 1.82 fold; AUCINF_obs [3, 11]: 14324 ± 5178 ng·h/mL; Cl_F_obs [3, 11]: 0.0079 ± 0.0035 L/h | CC(C)=CCC[C@](C)(O[C@@H]1O[C@H](CO[C@@H]2O[C@H](CO)[C@@H](O)[C@H](O)[C@H]2O)[C@@H](O)[C@H](O)[C@H]1O)[C@H]1CC[C@]2(C)[C@@H]1[C@H](O)C[C@@H]1[C@@]3(C)CC[C@H](O[C@@H]4O[C@H](CO)[C@@H](O)[C@H](O)[C@H]4O[C@@H]4O[C@H](CO)[C@@H](O)[C@H](O)[C@H]4O)C(C)(C)[C@@H]3CC[C@]12C [Rb1, ginsenoside Rb1]

Source: article PMC4055595, “Pharmacokinetic Compatibility of Ginsenosides and Schisandra Lignans in Shengmai-san: From the Perspective of P-Glycoprotein” (PLoS ONE, 2014)
